Source: article PMC6368365, “Didehydro-Cortistatin A Inhibits HIV-1 by Specifically Binding to the Unstructured Basic Region of Tat” (mBio, 2019)

Assays:
[1] = tested on: recombinant Tat transactivation of HIV-1 transcription in OM10.1 cells; assay: Transactivation assay with recombinant Tat in OM10.1 cell model of HIV-1 latency; format: cell-based; settings: Tat 1 μg, dCA 250 nM
Excerpt: The production of functional recombinant HIV-1 Tat in Escherichia coli is not trivial as the proper folding of Tat is extremely important for activity, and when expressed by itself, Tat agglomerates mostly because of oxidation of the cysteine residues in the cysteine region. Tat can also adhere to different surfaces and anionic polymers via its charged and hydrophobic residues ([21], [22]). We produced and purified recombinant HIV Tat HXB3 (residues 1 to 89) with a 6×His tag in the C-terminus in E. coli. For this, we have partially optimized the arginine codon usage and changed the rare AGA into codon CGT at arginine positions 7, 53, 56, and 87 of Tat (Fig. 1A). […] After Tat purification using nickel affinity chromatography followed by size exclusion filtration, Tat protein size was analyzed by SDS-PAGE followed by Coomassie blue staining (Fig. 1B). The specificity of the bands was confirmed by Western blotting using anti-Tat serum and anti-His antibody (Fig. 1B). The purity of Tat was further verified by size exclusion chromatography and high-performance liquid chromatography (HPLC) (Fig. 1C and D). […]
(§1) FIG 1 Purity and activity of the monomeric His-tagged Tat HXB3 and analysis of its direct binding to dCA. […] Statistical significance was determined using one-way ANOVA with post hoc Tukey’s test. ns, not significant; ***, P < 0.0001; *, P < 0.01. […]

[2] = target: Tat-TAR interaction (Human immunodeficiency virus type 1 group M subtype B, UniProt P69697); assay: EMSA of full-length Tat with TAR; format: biochemical, HIV-1; design: pTatC6H-1 (NIH AIDS Reagent Program) plasmid encoding C-terminal 6xHistidine Tat1-86 (HXB3, subtype B); made in house; host or cells: E. coli BL21 (plasmid pTatC6H-1, NIH AIDS Reagent Program); settings: radiolabeled TAR
Excerpt: Tat amplifies viral mRNA expression by binding through its basic domain to TAR, the 5′-terminal region stem-bulge-loop structure of HIV mRNAs, and recruits several cofactors to the viral promoter to promote transcriptional elongation. We investigated whether dCA could compete with TAR for Tat binding. For this purpose, we performed EMSA with radiolabeled TAR and recombinant Tat in the presence or absence of dCA (Fig. 6A).
EMSA with full-length Tat, a protocol similar to that of Das et al. was performed ([60]). Details on the EMSA with Tat’s basic peptide are provided in Text S1.
EMSA With full-length Tat: similar protocol was performed as in Das et al. (60). With Tat’s basic peptide: the 59-nucleotides TAR RNA was prepared by in vitro T7 RNA polymerase transcription according to Maxiscript kit manufacturer’s instructions (Ambion). The radiolabeled RNA was purified by urea gel followed by phenol-chloroform extraction. Binding reaction mixture (25 µL of 10 mM Tris HCL pH 7.5, NaCl 70 mM, EDTA 0.2 mM, NP40 0.01 %, Glycerol 5 % and tRNA 100 ng/µL) contained traces of radiolabeled TAR RNA and basic peptide (Pep B, residues 45-59) (or peptide C “Pep C”, residues 69-83, as negative control) in combination or not with compounds or cold TAR. The mixture was incubated for 10 min at room temperature (RT). […]

[3] = tested on: recombinant Tat transactivation of HIV-1 5′ LTR-luciferase; assay: Transactivation assay with recombinant Tat in HeLa-CD4-LTR-Luc cells; format: cell-based
Excerpt: The production of functional recombinant HIV-1 Tat in Escherichia coli is not trivial as the proper folding of Tat is extremely important for activity, and when expressed by itself, Tat agglomerates mostly because of oxidation of the cysteine residues in the cysteine region. Tat can also adhere to different surfaces and anionic polymers via its charged and hydrophobic residues ([21], [22]). We produced and purified recombinant HIV Tat HXB3 (residues 1 to 89) with a 6×His tag in the C-terminus in E. coli. For this, we have partially optimized the arginine codon usage and changed the rare AGA into codon CGT at arginine positions 7, 53, 56, and 87 of Tat (Fig. 1A). […] After Tat purification using nickel affinity chromatography followed by size exclusion filtration, Tat protein size was analyzed by SDS-PAGE followed by Coomassie blue staining (Fig. 1B). The specificity of the bands was confirmed by Western blotting using anti-Tat serum and anti-His antibody (Fig. 1B). The purity of Tat was further verified by size exclusion chromatography and high-performance liquid chromatography (HPLC) (Fig. 1C and D). We confirmed the activity of Tat by performing transactivation assays in both HeLa-CD4 cells stably expressing the HIV-1 5′ long terminal repeat (LTR) promoter driving luciferase expression (HeLa-CD4-LTR-Luc cells) ([10]) and the OM10.1 cell line model of HIV-1 latency ([23]) (Fig. 1E and F; see Fig. S2A and S2B in the supplemental material). In HeLa-CD4-LTR-Luc cells, the activity of our purified Tat was similar to the published activity of Tat obtained from the AIDS Reagent Program ([10]). In addition, denatured Tat and Tat mutated in the basic domain (Tat Mut [arginine residues mutated to alanine residues]), used as negative controls, were unable to transactivate the reporter (Fig. S2A).
as §1

Chain of Tat-TAR interaction (P69697 whole entry, the tested form may be a part): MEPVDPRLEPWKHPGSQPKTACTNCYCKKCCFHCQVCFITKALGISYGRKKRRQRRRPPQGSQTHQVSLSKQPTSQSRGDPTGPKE

SMILES	inhibition of recombinant Tat transactivation (HIV mRNA) [1]	inhibition of Tat-TAR interaction (EMSA) [2]	inhibition of recombinant Tat transactivation (luciferase) [3]
CN(C)C1CC23CCC4(O2)C(=CCC2(C)C(c5ccc6ccncc6c5)=CCC24)C=C3C(O)C1O (stereo not shown) [dCA, didehydro-cortistatin A]	inhibited transcriptional activity of Tat	inhibited the interaction of Tat with TAR in a dose-responsive manner	blocked Tat transcriptional activity in a dose-dependent manner
Cc1nnc(C(=O)NC(C)(C)c2nc(C(=O)NCc3ccc(F)cc3)c(O)c(=O)n2C)o1 [raltegravir, reference compound]	–	no inhibitory activity	no inhibitory activity
C[C@@](Cc1ccc(O)c(O)c1)(NN)C(=O)O.O [SCM, S-(−)-carbidopamonohydrate, reference compound]	no activity	–	no inhibitory activity
